Assay results as given in PubChem BioAssay (NCI).
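Following 48 hours of exposure in 96-well plates, responses at five concentrations were used to interpolate endpoints linearly. TGI marks complete inhibition of growth.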

What was measured:
Experiment in all cases: inhibition of tumour cell growth, NCI panel, 48 h
BT-549 breast = tested on: BT-549 breast
A498 renal = tested on: A498 renal
OVCAR-5 ovarian = tested on: OVCAR-5 ovarian
SW-620 colon = tested on: SW-620 colon
SR leukemia = tested on: SR leukemia
EKVX NSCLC = tested on: EKVX NSCLC
M14 melanoma = tested on: M14 melanoma
MCF7 breast = tested on: MCF7 breast
HCT-116 colon = tested on: HCT-116 colon
LOX IMVI melanoma = tested on: LOX IMVI melanoma
UACC-257 melanoma = tested on: UACC-257 melanoma
HOP-92 NSCLC = tested on: HOP-92 NSCLC
HCT-15 colon = tested on: HCT-15 colon
SK-MEL-2 melanoma = tested on: SK-MEL-2 melanoma
MALME-3M melanoma = tested on: MALME-3M melanoma
NCI-H522 lung = tested on: NCI-H522 lung
786-0 renal = tested on: 786-0 renal
U251 CNS = tested on: U251 CNS
SF-268 CNS = tested on: SF-268 CNS
OVCAR-4 ovarian = tested on: OVCAR-4 ovarian
NCI-H23 lung = tested on: NCI-H23 lung
RPMI-8226 leukemia = tested on: RPMI-8226 leukemia
CAKI-1 renal = tested on: CAKI-1 renal
SK-OV-3 ovarian = tested on: SK-OV-3 ovarian
OVCAR-3 ovarian = tested on: OVCAR-3 ovarian
TK-10 renal = tested on: TK-10 renal
SNB-75 CNS = tested on: SNB-75 CNS
NCI-H226 lung = tested on: NCI-H226 lung
HOP-62 NSCLC = tested on: HOP-62 NSCLC
MDA-N = tested on: MDA-N
NCI-H460 lung = tested on: NCI-H460 lung
SK-MEL-5 melanoma = tested on: SK-MEL-5 melanoma
SNB-19 CNS = tested on: SNB-19 CNS
UO-31 renal = tested on: UO-31 renal
K-562 leukemia = tested on: K-562 leukemia
MOLT-4 leukemia = tested on: MOLT-4 leukemia
IGROV1 ovarian = tested on: IGROV1 ovarian
T-47D breast = tested on: T-47D breast
SF-295 CNS = tested on: SF-295 CNS
OVCAR-8 ovarian = tested on: OVCAR-8 ovarian
ACHN renal = tested on: ACHN renal
PC-3 prostate = tested on: PC-3 prostate
HS 578T breast = tested on: HS 578T breast
KM12 colon = tested on: KM12 colon
UACC-62 melanoma = tested on: UACC-62 melanoma
NCI/ADR-RES ovarian = tested on: NCI/ADR-RES ovarian
SF-539 CNS = tested on: SF-539 CNS
RXF 393 renal = tested on: RXF 393 renal
MDA-MB-231 breast = tested on: MDA-MB-231 breast
A549 NSCLC = tested on: A549 NSCLC
CCRF-CEM leukemia = tested on: CCRF-CEM leukemia
MDA-MB-435 = tested on: MDA-MB-435
HT29 colon = tested on: HT29 colon
COLO 205 colon = tested on: COLO 205 colon
HL-60(TB) leukemia = tested on: HL-60(TB) leukemia
HCC-2998 colon = tested on: HCC-2998 colon
DU-145 prostate = tested on: DU-145 prostate
SK-MEL-28 melanoma = tested on: SK-MEL-28 melanoma

CC1=Nc2nc3ccccc3n2C(C)(C)C1
TGI (BT-549 breast): > 100 µM | TGI (A498 renal): > 100 µM | TGI (OVCAR-5 ovarian): > 100 µM | TGI (SW-620 colon): > 100 µM | TGI (SR leukemia): > 100 µM | TGI (EKVX NSCLC): > 100 µM | TGI (M14 melanoma): > 100 µM | TGI (MCF7 breast): > 100 µM | TGI (HCT-116 colon): > 100 µM | TGI (LOX IMVI melanoma): > 100 µM | TGI (UACC-257 melanoma): > 100 µM | TGI (HOP-92 NSCLC): > 100 µM | TGI (HCT-15 colon): > 100 µM | TGI (SK-MEL-2 melanoma): > 100 µM | TGI (MALME-3M melanoma): > 100 µM | TGI (NCI-H522 lung): > 100 µM | TGI (786-0 renal): > 100 µM | TGI (U251 CNS): > 100 µM | TGI (SF-268 CNS): > 100 µM | TGI (OVCAR-4 ovarian): > 100 µM | TGI (NCI-H23 lung): > 100 µM | TGI (RPMI-8226 leukemia): > 100 µM | TGI (CAKI-1 renal): > 100 µM | TGI (SK-OV-3 ovarian): > 100 µM | TGI (OVCAR-3 ovarian): > 100 µM | TGI (TK-10 renal): > 100 µM | TGI (SNB-75 CNS): > 100 µM | TGI (NCI-H226 lung): > 100 µM | TGI (HOP-62 NSCLC): > 100 µM | TGI (MDA-N): > 100 µM | TGI (NCI-H460 lung): > 100 µM | TGI (SK-MEL-5 melanoma): > 100 µM | TGI (SNB-19 CNS): > 100 µM | TGI (UO-31 renal): > 100 µM | TGI (K-562 leukemia): > 100 µM | TGI (MOLT-4 leukemia): > 100 µM | TGI (IGROV1 ovarian): > 100 µM | TGI (T-47D breast): > 100 µM | TGI (SF-295 CNS): > 100 µM | TGI (OVCAR-8 ovarian): > 100 µM | TGI (ACHN renal): > 100 µM | TGI (PC-3 prostate): > 100 µM | TGI (HS 578T breast): > 100 µM | TGI (KM12 colon): > 100 µM | TGI (UACC-62 melanoma): > 100 µM | TGI (NCI/ADR-RES ovarian): > 100 µM | TGI (SF-539 CNS): > 100 µM | TGI (RXF 393 renal): > 100 µM | TGI (MDA-MB-231 breast): > 100 µM | TGI (A549 NSCLC): > 100 µM | TGI (CCRF-CEM leukemia): > 100 µM | TGI (MDA-MB-435): > 100 µM | TGI (HT29 colon): > 100 µM | TGI (COLO 205 colon): > 100 µM

CCCCCCc1cc2cc(C(=O)Nc3ccccc3F)c(=N)oc2cc1O
TGI (BT-549 breast): 23.2 µM | TGI (A498 renal): 37.2 µM | TGI (OVCAR-5 ovarian): 50.9 µM | TGI (SW-620 colon): > 100 µM | TGI (SR leukemia): 50.2 µM | TGI (EKVX NSCLC): 32.3 µM | TGI (M14 melanoma): 28.7 µM | TGI (HL-60(TB) leukemia): 31.9 µM | TGI (MCF7 breast): 39.1 µM | TGI (HCT-116 colon): 20.6 µM | TGI (LOX IMVI melanoma): 19.4 µM | TGI (UACC-257 melanoma): 42.2 µM | TGI (HCT-15 colon): 22.3 µM | TGI (SK-MEL-2 melanoma): 26.8 µM | TGI (MALME-3M melanoma): 57.6 µM | TGI (NCI-H522 lung): 16.8 µM | TGI (786-0 renal): 24.9 µM | TGI (U251 CNS): 17.9 µM | TGI (SF-268 CNS): 59.9 µM | TGI (OVCAR-4 ovarian): 22.4 µM | TGI (NCI-H23 lung): 8.03 µM | TGI (RPMI-8226 leukemia): > 100 µM | TGI (CAKI-1 renal): 22.9 µM | TGI (SK-OV-3 ovarian): 29.3 µM | TGI (HCC-2998 colon): 48.1 µM | TGI (DU-145 prostate): 25.2 µM | TGI (OVCAR-3 ovarian): 25.9 µM | TGI (HOP-62 NSCLC): 31.8 µM | TGI (MDA-N): 24 µM | TGI (NCI-H460 lung): 97.8 µM | TGI (SK-MEL-5 melanoma): 12.8 µM | TGI (SNB-19 CNS): 56.2 µM | TGI (UO-31 renal): 17.5 µM | TGI (K-562 leukemia): > 100 µM | TGI (MOLT-4 leukemia): 90.5 µM | TGI (IGROV1 ovarian): 13.7 µM | TGI (T-47D breast): 12.4 µM | TGI (SF-295 CNS): 33 µM | TGI (OVCAR-8 ovarian): 8.34 µM | TGI (ACHN renal): 25.6 µM | TGI (PC-3 prostate): 26.8 µM | TGI (HS 578T breast): 63.8 µM | TGI (KM12 colon): 19.7 µM | TGI (UACC-62 melanoma): 36.1 µM | TGI (NCI/ADR-RES ovarian): 16.8 µM | TGI (SF-539 CNS): 39.3 µM | TGI (SK-MEL-28 melanoma): 56.8 µM | TGI (A549 NSCLC): 26.9 µM | TGI (CCRF-CEM leukemia): 21.7 µM | TGI (MDA-MB-435): 10.2 µM | TGI (HT29 colon): 62.9 µM | TGI (COLO 205 colon): 39.3 µM
